Test results: ChEMBL document CHEMBL1141126, “Improving the antiviral efficacy and selectivity of HIV-1 reverse transcriptase inhibitor TSAO-T by the introduction of functional groups at the N-3 position” (J Med Chem, 2005)

Columns and labels:
[1] = tested on: Human immunodeficiency virus 2; experiment: Effective concentration required to inhibit HIV-2 induced cytopathicity in human MT-4 cell line; format: functional, organism-based; details: Human immunodeficiency virus 2, MT4
CCRF-CEM [2] = experiment: Ratio of cytostatic concentration to effective concentration in human CEM cell line; format: functional
CCRF-CEM [3] = experiment: Cytostatic concentration required to inhibit cell proliferation in human CEM cell line; format: functional
[4] = tested on: Human immunodeficiency virus 1; experiment: Effective concentration required to inhibit HIV-1/138K induced cytopathicity in human CEM cell line; format: functional, organism-based; details: Human immunodeficiency virus 1, CCRF-CEM
[5] = tested on: Human immunodeficiency virus 2; experiment: Effective concentration required to inhibit HIV-2 induced cytopathicity in human CEM cell line; format: functional, organism-based; details: Human immunodeficiency virus 2, CCRF-CEM
[6] = tested on: Human immunodeficiency virus 1; experiment: Effective concentration required to inhibit HIV-1 induced cytopathicity in human CEM cell line; format: functional, organism-based; details: Human immunodeficiency virus 1, CCRF-CEM
[7] = molecular target: Human immunodeficiency virus type 1 reverse transcriptase (Human immunodeficiency virus 1, UniProt Q72547); experiment: Inhibitory concentration required to inhibit recombinant HIV-1 reverse transcriptase
[8] = tested on: Human immunodeficiency virus 1; experiment: Effective concentration required to inhibit HIV-1 induced cytopathicity in human MT-4 cell line; format: functional, organism-based; details: Human immunodeficiency virus 1, MT4

Structure (SMILES)	EC50 [1] [µM]	SI (CCRF-CEM [2])	CC50 (CCRF-CEM [3]) [µM]	EC50 [4] [µM]	EC50 [5] [µM]	EC50 [6] [µM]	IC50 [7] [µM]	EC50 [8] [µM]
Cc1cn([C@@H]2O[C@H](CO[Si](C)(C)C(C)(C)C)C3(OS(=O)(=O)C=C3N)[C@H]2O[Si](C)(C)C(C)(C)C)c(=O)[nH]c1=O (some centres undefined)	> 20	200	12	> 10	> 20	–	–	–
Cc1cn([C@@H]2O[C@H](CO[Si](C)(C)C(C)(C)C)[C@@]3(OS(=O)(=O)C=C3N)[C@H]2O[Si](C)(C)C(C)(C)C)c(=O)n(CCc2ccccc2)c1=O	> 2	23	14.2	> 10	> 10	0.62	> 500	–
COC(=O)Cn1c(=O)c(C)cn([C@@H]2O[C@H](CO[Si](C)(C)C(C)(C)C)[C@@]3(OS(=O)(=O)C=C3N)[C@H]2O[Si](C)(C)C(C)(C)C)c1=O	> 152	>253	> 152	–	> 152	0.06	3	0.11
Cc1cn([C@@H]2O[C@H](CO[Si](C)(C)C(C)(C)C)[C@@]3(OS(=O)(=O)C=C3N)[C@H]2O[Si](C)(C)C(C)(C)C)c(=O)n(CC(=O)OCc2ccccc2)c1=O	> 27	31	12.9	–	> 5	0.41	> 250	0.54
Cc1cn([C@@H]2O[C@H](CO[Si](C)(C)C(C)(C)C)[C@@]3(OS(=O)(=O)C=C3N)[C@H]2O[Si](C)(C)C(C)(C)C)c(=O)n(Cc2ccccc2)c1=O	> 50	294	53	> 50	> 50	0.18	> 500	0.47
Cc1cn([C@@H]2O[C@H](CO[Si](C)(C)C(C)(C)C)[C@@]3(OS(=O)(=O)C=C3N)[C@H]2O[Si](C)(C)C(C)(C)C)c(=O)n(CCC[N+](C)(C)C)c1=O.[I-]	> 25	22	110	> 25	> 25	5	11	4.9
COCCn1c(=O)c(C)cn([C@@H]2O[C@H](CO[Si](C)(C)C(C)(C)C)[C@@]3(OS(=O)(=O)C=C3N)[C@H]2O[Si](C)(C)C(C)(C)C)c1=O	> 10	485	38.8	> 10	> 10	0.08	2.9	0.16
Cc1cn([C@@H]2O[C@H](CO[Si](C)(C)C(C)(C)C)[C@@]3(OS(=O)(=O)C=C3N)[C@H]2O[Si](C)(C)C(C)(C)C)c(=O)n(CCBr)c1=O	> 50	4300	129	> 50	> 50	0.03	> 500	0.17
Cc1cn([C@@H]2O[C@H](CO[Si](C)(C)C(C)(C)C)[C@@]3(OS(=O)(=O)C=C3N)[C@H]2O[Si](C)(C)C(C)(C)C)c(=O)n(CC2CC2)c1=O	> 50	335	60.4	> 50	> 10	0.18	> 500	0.2
Cc1cn([C@@H]2O[C@H](CO[Si](C)(C)C(C)(C)C)[C@@]3(OS(=O)(=O)C=C3N)[C@H]2O[Si](C)(C)C(C)(C)C)c(=O)n(CCCN(C)C)c1=O	> 10	61	10.4	> 10	> 10	0.17	6.6	0.16
Cc1cn([C@@H]2O[C@H](CO[Si](C)(C)C(C)(C)C)[C@@]3(OS(=O)(=O)C=C3N)[C@H]2O[Si](C)(C)C(C)(C)C)c(=O)n(CCO)c1=O	> 10	282	11.3	8	> 10	0.04	3.1	0.06
Cc1cn([C@@H]2O[C@H](CO[Si](C)(C)C(C)(C)C)[C@@]3(OS(=O)(=O)C=C3N)[C@H]2O[Si](C)(C)C(C)(C)C)c(=O)n(CCc2cccc3cc[nH]c23)c1=O	> 10	81	27.6	> 50	> 50	0.34	> 500	0.96
CNC(=O)Cn1c(=O)c(C)cn([C@@H]2O[C@H](CO[Si](C)(C)C(C)(C)C)[C@@]3(OS(=O)(=O)C=C3N)[C@H]2O[Si](C)(C)C(C)(C)C)c1=O	> 250	>=12500	≥ 250	3.5	> 50	0.02	3.1	0.03
Cc1cn([C@@H]2O[C@H](CO[Si](C)(C)C(C)(C)C)[C@@]3(OS(=O)(=O)C=C3N)[C@H]2O[Si](C)(C)C(C)(C)C)c(=O)n(CC(=O)N(C)C)c1=O	> 250	12250	245	4.5	> 250	0.02	3.5	0.04
COC(=O)CCCCn1c(=O)c(C)cn([C@@H]2O[C@H](CO[Si](C)(C)C(C)(C)C)[C@@]3(OS(=O)(=O)C=C3N)[C@H]2O[Si](C)(C)C(C)(C)C)c1=O	> 142	1563	125	–	≥ 142	0.08	327	0.2
CCOC(=O)CCCCCn1c(=O)c(C)cn([C@@H]2O[C@H](CO[Si](C)(C)C(C)(C)C)[C@@]3(OS(=O)(=O)C=C3N)[C@H]2O[Si](C)(C)C(C)(C)C)c1=O	> 50	312	40.6	> 10	> 50	0.13	> 500	0.27
Cc1cn([C@@H]2O[C@H](CO[Si](C)(C)C(C)(C)C)[C@@]3(OS(=O)(=O)C=C3N)[C@H]2O[Si](C)(C)C(C)(C)C)c(=O)n(CCCN(CC(=O)O)CC(=O)O)c1=O	> 50	>63	> 250	> 50	> 10	4	> 500	–
Cc1cn([C@@H]2O[C@H](CO[Si](C)(C)C(C)(C)C)[C@@]3(OS(=O)(=O)C=C3N)[C@H]2O[Si](C)(C)C(C)(C)C)c(=O)n(CC(N)=O)c1=O	> 10	266	13.3	> 50	> 10	0.05	> 250	–
Cc1cn([C@@H]2O[C@H](CO[Si](C)(C)C(C)(C)C)[C@@]3(OS(=O)(=O)C=C3N)[C@H]2O[Si](C)(C)C(C)(C)C)c(=O)n(CC(=O)O)c1=O	> 155	44	152	–	≥ 155	3.48	15	–
Cc1cn([C@@H]2O[C@H](CO[Si](C)(C)C(C)(C)C)[C@@]3(OS(=O)(=O)C=C3N)[C@H]2O[Si](C)(C)C(C)(C)C)c(=O)n(CCCN)c1=O	> 10	83	11.6	> 10	> 10	0.14	8.1	–
Cc1cn([C@@H]2O[C@H](CO[Si](C)(C)C(C)(C)C)[C@@]3(OS(=O)(=O)C=C3N)[C@H]2O[Si](C)(C)C(C)(C)C)c(=O)n(CCCO)c1=O	> 2	386	3.86	–	> 2	0.01	3	–
